# Tests used:
# [1] = test system: pain-evoked brain activity; test: fMRI of evoked cuff pain, BOLD activations; assay type: in vivo, human
# Excerpt: As used herein, “Functional Magnetic Resonance Imaging of Evoked Pain and Visual Stimulation” refers to the following procedure. During evoked pain and visual stimulation fMRI paradigms, participants were lying in the scanner as they received either pressure stimulation to their calf muscle or they experienced an unpleasant visual stimulus. For both pain and visual stimulation, whole-brain Blood Oxygenation Level Dependent (BOLD) functional images were acquired.
# Each subject underwent a 12-minute block design scan, during which 3 cuff pressure levels (2 equal pressures=15 to 30 and 100 to 115 mmHg; and 1 equal pain=40 to 60/100 numerical rating scale [NRS] units) were applied to the left calf […] using the pressure cuff device in pseudo-random order for a total of 12 pressure stimulations. Pressure levels for each subject were determined during the QST assessment. Each pressure stimulus was applied for 14 seconds. Prior to each pressure stimulus, a 4-second visual cue was presented to signal upcoming cuff pressure to limit any stimulus-onset startle reflex. Subjects' head motion was minimized using foam pads around the head, and a strap secured across the forehead.
# As with functional connectivity analyses, pre-processing of images occurs using SPM12. The first 5 images were discarded from the data set and not used for further analysis in order to correct for equilibration effects. Pre-processing steps included: physio-correction, motion correction, coregistration, normalization, and smoothing (FWHM 6 or 8 mm). First level analyses were performed using the general linear model (GLM) implemented in SPM12. Motion parameters from re-alignment were modelled as regressors of no interest. Pain and visual blocks were convolved with a canonical hemodynamic response function and contrasted with rest blocks of no stimulation. These activation maps were then passed up to group-level analyses comparing differences in activations at the analysis visits of interest in SPM. Resulting maps were set at an uncorrected voxel threshold of p<0.001, with p<0.05 FDR or FWE significance corrected for multiple comparisons. The primary analyses were a paired sample t-tests between placebo images and NYX-2925 images (either 20 or 200 mg).
# (§1) Several analyses were conducted with the fMRI resting state and task data. Results were assessed by: 1) a primary analysis, where a finding was deemed significant with a corrected cluster level p<0.05, derived from an uncorrected voxel-wise p<0.001, and 2) an exploratory analysis, where a finding was deemed significant with an uncorrected voxel-wise p<0.005 and having a cluster greater than or equal to 80 contiguous voxels. Results that met significance in the primary analyses had connectivity values extracted and imported into SPSS v25 where paired t-tests were performed to assess for potential outliers contributing to the finding. Remaining data were then correlated with clinical measures using parametric bivariate Pearson correlations. Results were deemed significant at p<0.05.
# [2] = test system: resting state network connectivity; test: rs-fcMRI group independent component analysis (DMN, SLN, DAN); assay type: in vivo, human
# Experimental: In order to quantify intrinsic brain connectivity, rs-fcMRI data were analyzed with both dual-regression ICA and seed-voxel approaches. These approaches are complementary, as they quantify intrinsic brain connectivity on a network level (dual regression probabilistic ICA) and a more specific region-focused level (seed-voxel).
# Resting state functional connectivity MRI data were preprocessed and analyzed using statistical parametric mapping software package Version 12, the CONN functional connectivity toolbox, and the GIFT toolbar, all running on MATLAB Version 9.2 or later. Upon collection of rs-fcMRI data, physiological artifacts were first removed using a custom MATLAB algorithm and slice-time corrected using Functional Magnetic Resonance Imaging of the Brain Software Library software. Preprocessing steps included motion correction, realignment, registration, normalization to standard Montreal Neurological Institute template, and smoothing (full width at half maximum Gaussian kernel of 6 or 8 mm).
# Group ICA was performed using the GIFT toolbar and component estimates were validated using Icasso software for 10 iterations. The number of independent components was limited to 25 to minimize splitting into subcomponents. Subject-specific spatial maps and time courses were back reconstructed using spatiotemporal regression and dual regression in GIFT. As for seed-based analyses, individual maps were passed onto group second level analyses in statistical parametric mapping, where differences in resting state network connectivity between placebo and drug images were performed.
# as §1
# Group ICA was performed (n=18) for the resting state scan, and the network components for the Default Mode Network, the Salience Network, and the Dorsal Attention Network were computed. […] With the exploratory analyses, resting state connectivity was decreased from the placebo visit to the NYX-2925 200 mg visit (placebo >NYX-2925 200 mg) between the Default Mode Network and the left mid cingulate cortex. […] In exploratory analyses, resting state functional connectivity was decreased from the placebo visit to the NYX-2925 200 mg visit (placebo >NYX-2925 200 mg) between the Salience Network and the right putamen/thalamus. Here, augmented connectivity between Salience Network, a network comprised of pronociceptive regions, and putamen and thalamus, regions also involved in nociception, was decreased following treatment with NYX-2925.
# [3] = exploratory, placebo visit to NYX-2925 200 mg visit
smiles,measurement,setting,value
"CC(C)C(=O)N1CCC[C@]12CN([C@H](C(N)=O)[C@@H](C)O)C2=O [NYX-2925, (2S, 3R)-3-hydroxy-2-((R)-5-isobutyryl-1-oxo-2,5-diazaspiro[3.4]octan-2-yl)butanamide]","pain-evoked brain activity in brain imaging, subject 1","[1]; 200 mg dose vs placebo, FIGS. 4A, 4B",reduced pain-related brain activity
same,"pain-evoked brain activity in brain imaging, subject 2","[1]; 200 mg dose vs placebo, FIGS. 4C, 4D",reduction in pain-related brain activity
same,BOLD activations in right mid cingulate cortex and left primary somatosensory cortex/supplementary motor area,"[1]; exploratory, placebo visit to NYX-2925 20 mg visit",decreased
same,"BOLD activations in right putamen/insula, bilateral primary somatosensory/cingulate cortex, left putamen, left posterior insula",[1]; [3],decreased
same,"BOLD activations, evoked cuff pain task (Pain50 pressure > rest)",[1]; primary analyses,No significant BOLD activations
same,connectivity Default Mode Network - left mid cingulate cortex,[2]; [3],decreased
same,connectivity Salience Network - right putamen/thalamus,[2]; [3],decreased
same,Salience Network connectivity,[2]; primary analysis,No results met significance
same,Default Mode Network connectivity,"[2]; primary analysis, n=18",No results met significance
same,Dorsal Attention Network connectivity,[2]; primary and exploratory analyses,no significant results

# Source: patent US20210308101A1, “METHODS OF TREATING FIBROMYALGIA” (Aptinyx Inc., priority 2019, published 2021)
